Test results: patent US11884627B2, “Compounds and compositions for treating conditions associated with LPA receptor activity” (Lhotse Bio, Inc., priority 2022, dated 2024)

Experiments:
[1] = biological target: T1, human LPA1 (Homo sapiens, UniProt Q92633); experiment: In vitro LPA1 functional antagonist assay (calcium mobilization, FLIPR); assay type: cell-based; details: CHO-K1 cells overexpressing human LPA1, Oleoyl LPA challenge at EC80
T1 construct: expressed in transfected cells; host or cells: CHO-K1
T1 sequence (Q92633 whole entry): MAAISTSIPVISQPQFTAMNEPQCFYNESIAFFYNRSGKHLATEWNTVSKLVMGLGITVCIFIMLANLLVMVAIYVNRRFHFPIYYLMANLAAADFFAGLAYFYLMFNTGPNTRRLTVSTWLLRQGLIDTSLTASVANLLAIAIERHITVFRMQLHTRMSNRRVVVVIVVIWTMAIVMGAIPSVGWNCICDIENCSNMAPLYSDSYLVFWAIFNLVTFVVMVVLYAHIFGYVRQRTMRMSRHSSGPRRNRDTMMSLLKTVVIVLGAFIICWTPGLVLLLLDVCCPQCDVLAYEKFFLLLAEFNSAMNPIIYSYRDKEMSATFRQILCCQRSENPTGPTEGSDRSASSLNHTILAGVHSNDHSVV
Experimental: In Vitro LPA1 Functional Antagonist Assay
CHO-K1 cells overexpressing human LPA1 were seeded in a total volume of 20 μL into black-walled, clear-bottom. Poly-D-lysine coated 384-well microplates and incubated at 37° C., for the appropriate time prior to testing. Assays were performed in 1× Dye Loading Buffer consisting of 1× Dye, 1× Additive A and 2.5 mM Probenecid in HBSS/20 mM Hepes. Probenicid was prepared fresh. Cells were loaded with dye prior to testing. Media was aspirated from cells and replaced with 20 μL Dye Loading Buffer. Cells were incubated for 30-60 minutes at 37° C. After dye loading, cells were removed from the incubator and 10 μL 3× test compound was added. Cells were incubated for 30 minutes at room temperature in the dark to equilibrate plate temperature followed by Oleoyl LPA challenge at EC80. Compound antagonist activity was measured on a FLIPR Tetra (MSD). Calcium mobilization was monitored for 2 minutes and 10 μL Oleoyl LPA in HBSS/20 mM Hepes was added to the cells 5 seconds into the assay. For LPA EC80 determination, after dye loading, cells were removed from the incubator and 10 μL HBSS/20 mM Hepes was added. 3× vehicle was included in the buffer. Cells were incubated for 30 minutes at room temperature in the dark to equilibrate plate temperature. Intermediate dilution of LPA stocks was performed to generate 4×LPA samples in assay buffer. LPA agonist activity was measured on a FLIPR Tetra (MSD). Calcium mobilization was monitored for 2 minutes and 10 μL 4×LPA sample in HBSS/20 mM Hepes was added to the cells 5 seconds into the assay. Compound activity was analyzed using CBIS data analysis suite (ChemInnovation, CA). Percentage inhibition is calculated using the following formula: % Inhibition=100%×(1−(mean RFU of test sample−mean RFU of vehicle control)/(mean RFU of LPA control−mean RFU of vehicle control)).
Table B1 and Table B2 show the biological activity of compounds in in vitro LPA1 functional antagonist assay. Activity of the tested compounds provided in Table B1 is as follows: +++=IC50<1 μM; ++=IC50 1 μM−10 μM; +=IC50>10 μM.

[2] = biological target: T1, human LPA1; experiment: In vitro LPA1 calcium flux antagonist assay - Bioduro protocol; assay type: cell-based; details: CHO-K1 cells overexpressing human LPA1 and G15a, LPA challenge at EC80
Method in brief: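 Calcium mobilization read on FLIPR after EC80 LPA was added to compound-pretreated (30 min) CHO-K1 cells co-expressing human LPA1 and G15a. Cells were starved 4 h and dye-loaded with Fluo-8 AM/2.5 mM probenecid in HBSS-Hepes; inhibition normalized between DMSO and LPA-control RFU.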

[3] = calcium mobilization on FLIPR Tetra, read-out: IC50
[4] = Table B3, read-out: Activity (IC50 class)
[5] = Table B1, read-out: Activity (IC50 class)

Structure (SMILES) | IC50 ([1]; Table B2, read-out: IC50) [nM] | IC50 [2, 3] [nM] | IC50 [2, 4] [nM] | IC50 [1, 5] [nM]
CCCOc1cccc(-c2ccc(NC3(C(=O)O)CCOCC3)cc2COC2CCCC2)c1F [Compound 284] | 3.97 | 11.9 | < 100 | –
CCOc1c(C)ccc(-c2ccc(NC3(C(=O)O)CCOCC3)cc2COC2CCCC2)c1C [Compound 280] | 18.6 | 8.12 | < 100 | –
CCOc1cccc(-c2ccc(NC3(C(=O)O)CCOCC3)cc2COC2CC2)c1Cl [Compound 295, 4-((2′-chloro-2-(cyclopropoxymethyl)-3′-ethoxy-[1,1′-biphenyl]-4-yl)amino)tetrahydro-2H-pyran-4-carboxylic acid] | 7.94 | 3.31 | < 100 | –
COc1cc(OC)cc(-c2ccc(OCCC(=O)O)cc2COC2Cc3ccccc3C2)c1 [Compound 104] | 162 | 628 | 100 to 1000 | < 1000
COc1cc(-c2ccc(NC3(C(=O)O)CCOCC3)cc2COC2CCCC2)c(C(F)F)c(OC)n1 [Compound 283] | 10.9 | 11.5 | < 100 | –
COc1cc(-c2ccc(NCCC(=O)O)cc2COCc2ccccc2)ccc1C(F)F [Compound 102] | 2490 | – | – | 1000 to 10000
CCCCOCc1cc(NC2(C(=O)O)CCOCC2)ccc1-c1ccc(C)c(OCC)c1C [Compound 399] | – | 6.41 | < 100 | –
COc1cc(-c2ccc(OC3(C(=O)O)CCOCC3)cc2CCC2CCOC2)c(F)c(OC)c1C (stereo not drawn) [Compound 260] | – | 174 | 100 to 1000 | –
COc1cc(-c2ccc(NC3(C(=O)O)CCC(OC)CC3)cc2COC2CCCC2)cc(OC)c1C (stereo not drawn) [Compound 205] | – | 1260 | > 1000 | –
COc1cc(-c2c(C)cc(OC3(C(=O)O)CCOCC3)cc2COC2CCCC2)cc(OC)c1C [Compound 163] | – | 382 | 100 to 1000 | –
Cc1c(OC2CC2)cccc1-c1ccc(OC2(C(=O)O)CCOCC2)cc1COC1CC1 [Compound 372] | – | 57.4 | < 100 | –
CCOc1cccc(-c2ccc(NC3(C(=O)O)CCOCC3)cc2COC2CC2)c1F [Compound 306] | – | 165 | 100 to 1000 | –
COc1cc(-c2ccc(NC3(C(=O)O)CCC(F)(F)CC3)cc2COC2CC2)cc(OC)c1C [Compound 348] | – | 69.5 | < 100 | –
CCOc1cncc(-c2ccc(NC3(C(=O)O)CCOCC3)cc2COCCC(C)C)c1C(F)F [Compound 413, 4-({4-[4-(difluoromethyl)-5-ethoxypyridin-3-yl]-3-[(3-methylbutoxy)methyl]phenyl}amino) oxane-4-carboxylic acid] | – | 5.79 | < 100 | –
COc1cc(-c2ccc(NC3(C(=O)O)CCOCC3)cc2COC2CCCC2)cc(OC2CC2)c1C [Compound 340] | – | 26.1 | < 100 | –
COC(=O)N1CC(Nc2ccc(-c3cc(OC)c(C)c(OC)c3C)c(COC3CCCC3)c2)(C(=O)O)C1 [Compound 195] | – | 760 | > 1000 | –
COc1cc(-c2ccc(NC3(C(=O)O)CCOCC3)cc2COC2CCCC2)c(Cl)c(OC)c1F [Compound 261] | – | 51.9 | < 100 | –
COc1cc(-c2ccc(NC3(C(=O)O)CCOCC3)cc2COC2COc3ccccc32)cc(OC)c1C (single isomer, unassigned) [Compound 217] | – | 584 | 100 to 1000 | –
COc1cc(-c2ccc(NC3(C(=O)O)CCOCC3)cc2COC2CC2)c(Cl)c(OC)c1C [Compound 293] | – | 5.72 | < 100 | –
COc1cc(-c2ccc(NC3(C(=O)O)CCC(C)(OC)CC3)cc2COC2CCCC2)c(F)c(OC)c1C (single isomer, unassigned) [Compound 238] | – | 268 | 100 to 1000 | –
COc1cc(-c2ccc(NC3(C(=O)O)CCOCC3)cc2COC2CCCC2)c(F)cc1C [Compound 319] | – | 76.7 | < 100 | –
COc1cc(-c2ccc(NC3(C(=O)O)CC(OC)C3)cc2COC2Cc3ccccc3C2)cc(OC)c1C (single isomer, unassigned) [Compound 125] | – | 116 | 100 to 1000 | –
CCOc1cncc(-c2ccc(NC3(C(=O)O)CCOCC3)cc2COC2CC2)c1C [Compound 407] | – | 96.5 | < 100 | –
CCOc1cccc(-c2ccc(NC3(C(=O)O)CC3)cc2COC2CCCC2)c1C(F)F [Compound 317] | – | 14 | < 100 | –
CCOc1cc(OC)cc(-c2ccc(NC3(C(=O)O)CCOCC3)cc2COC2CCCC2)c1 [Compound 315] | – | 24 | < 100 | –
O=C(O)C1(Nc2ccc(-c3cccc(OC4CC4)c3C(F)F)c(COC3CC3)c2)CCOCC1 [Compound 322] | – | 5.9 | < 100 | –
CCOc1cc(OC)cc(-c2ccc(C3(C(=O)O)CC3)cc2COC2CCCC2)c1F [Compound 391] | – | 471 | 100 to 1000 | –
COc1cc(-c2ccc(NC3(C(=O)O)CCOCC3)cc2COCC2CC2)c(F)c(OC)c1C [Compound 364] | – | 82.9 | < 100 | –
Cc1cccc(-c2ccc(NC3(C(=O)O)CCOCC3)cc2COC2CC2)c1F [Compound 328] | – | > 10000 | > 1000 | –
COc1cc(-c2ccc(NC3(C(=O)O)CCC(F)(F)CC3)cc2COC2CC2)c(F)c(OC)c1C [Compound 347] | – | 23.5 | < 100 | –

Further lines, results first:

IC50 ([1]; Table B2, read-out: IC50) [nM] | IC50 [2, 3] [nM] | IC50 [2, 4] [nM] | IC50 [1, 5] [nM] | Structure (SMILES)
6.62 | 13.9 | < 100 | – | Cc1c(OC2CC2)cccc1-c1ccc(NC2(C(=O)O)CCOCC2)cc1COC1CCCC1 [Compound 285]
9.54 | 12.6 | < 100 | – | COc1cc(-c2ccc(NC3(C(=O)O)CCOCC3)cc2CCC2CCOC2)cc(OC)c1C (single isomer, unassigned) [Compound 185, 4-((3′,5′-dimethoxy-4′-methyl-2-(2-(tetrahydrofuran-3-yl)ethyl)-[1,1′-biphenyl]-4-yl)amino)tetrahydro-2H-pyran-4-carboxylic acid]
1540 | – | – | 1000 to 10000 | COc1cc(OC)cc(-c2ccc(NCCC(=O)O)cc2COC2Cc3ccccc3C2)c1 [Compound 103]
– | 8.41 | < 100 | – | COc1cc(OC)c(Cl)c(-c2ccc(NC3(C(=O)O)CCOCC3)cc2COC2CCCC2)c1 [Compound 257]
– | 152 | 100 to 1000 | – | CCOc1c(C)ncc(-c2ccc(NC3(C(=O)O)CCOCC3)cc2COC2CC2)c1C [Compound 408]
– | 82.9 | < 100 | – | COc1cc(-c2ccc(NC3(C(=O)O)CCN(C(C)=O)CC3)cc2COC2Cc3ccccc3C2)cc(OC)c1C [Compound 133]
– | 6.2 | < 100 | – | CCOc1cc(OC)cc(-c2ccc(NC3(C(=O)O)CCC(F)(F)CC3)cc2COC2CC2)c1F [Compound 388]
– | 28 | < 100 | – | COc1cc(-c2ccc(NC3(C(=O)O)CCOCC3)cc2COC2CCCC2)cc(OC)c1C(F)F [Compound 274]
– | 20.1 | < 100 | – | COc1cc(-c2ccc(NC3(C(=O)O)CCOCC3)cc2CCC2(C)Oc3ccccc3O2)cc(OC)c1C [Compound 132, 4-({3′,5′-dimethoxy-4′-methyl-2-[2-(2-methyl-1,3-benzodioxol-2-yl)ethyl]-[1,1′-biphenyl]-4-yl}amino)oxane-4-carboxylic acid]
– | 914 | 100 to 1000 | – | COc1cc(-c2c(CC#N)cc(NC3(C(=O)O)CCOCC3)cc2COC2CCCC2)cc(OC)c1C [Compound 233]
– | 40.2 | < 100 | – | COc1cc(C2CC2)cc(-c2ccc(NC3(C(=O)O)CCOCC3)cc2COC2CCCC2)c1F [Compound 251]
– | 58.4 | < 100 | – | CCCOc1cccc(-c2ccc(NC3(C(=O)O)CCOCC3)cc2COC2CC2)c1F [Compound 307]
– | 64.3 | < 100 | – | COc1cc(-c2ccc(NC3(C(=O)O)CCOCC3)cc2CCC2CCOC2)cc(OC)c1C (single isomer, unassigned) [Compound 186, 4-((3′,5′-dimethoxy-4′-methyl-2-(2-(tetrahydrofuran-3-yl)ethyl)-[1,1′-biphenyl]-4-yl)amino)tetrahydro-2H-pyran-4-carboxylic acid]
– | 476 | 100 to 1000 | – | COc1cc(-c2ccc(NC3(C(=O)O)CCC(O)CC3)cc2COC2CCCC2)cc(OC)c1C (stereo not drawn) [Compound 206]
